The record followed here is patent US20090176755A1, “PHARMACEUTICAL COMPOSITIONS COMPRISING AN ANTIBIOTIC” (priority 2005, published 2009).

The series is described as follows: Exposure of form B crystals to high relative humidity or water (polymorphic transformation). Type of series: physicochemical. An excerpt:
Usually minutes of exposure to high humidity and seconds of exposure to water, such as within an suspension, are sufficient for this transformation. Such conditions are for example found during pharmaceutical production in countries with a humid climate.

Each structure is given as a SMILES string.

As to `C=CC1=C(C(=O)O)N2C(=O)C(NC(=O)C(=NO)c3csc(N)n3)[C@H]2SC1` (stereo partly drawn) [crystalline form B of cefdinir, 7-[2-(2-aminothiazol-4-yl)-2-hydroxyiminoacetamido]-3-vinyl-3-cephem-4-carboxylic acid], the “exposure time sufficient for transformation into a different polymorphic form” value is “minutes” (exposure to high humidity) and “seconds” (exposure to water, such as within a suspension). Besides, for the setting “form B crystals exposed to humid conditions”, the “relative humidity at which form B transforms into a different polymorphic form with reduced stability” value is reported as “higher than 65%”.
